Patent publication US8952024B2, “Herbicidal pyrimidone derivatives” (E I du Pont de Nemours and Company, priority 2009, dated 2015)

Assays:
Format in all cases: in vivo
[1] = system: Italian ryegrass (Lolium multiflorum); assay: Test B pre-/postemergence plant response
In short: (§1)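 Test compounds, formulated in a non-phytotoxic solvent mixture with surfactant, are applied to the soil surface (loam and sand blend) right after seeding, or sprayed over plants at the 1- to 4-leaf stage grown in peat moss/vermiculite medium. After 13 to 15 days under glasshouse conditions, each species is scored visually from 0 (no effect) to 100 (complete control) against controls.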

[2] = system: Surinam grass (Brachiaria decumbens); assay: Test B pre-/postemergence plant response
In short: as §1

[3] = system: bermudagrass (Cynodon dactylon); assay: Test B pre-/postemergence plant response
In short: as §1

[4] = system: blackgrass (Alopecurus myosuroides); assay: Test B pre-/postemergence plant response
In short: as §1

[5] = system: corn (Zea mays); assay: Test B pre-/postemergence plant response
In short: as §1

[6] = system: johnsongrass (Sorghum halepense); assay: Test B pre-/postemergence plant response
In short: as §1

[7] = system: lambsquarters (Chenopodium album); assay: Test B pre-/postemergence plant response
In short: as §1

[8] = system: large crabgrass (Digitaria sanguinalis); assay: Test B pre-/postemergence plant response
In short: as §1

[9] = system: ragweed (common ragweed, Ambrosia elatior); assay: Test B pre-/postemergence plant response
In short: as §1

[10] = system: soybean (Glycine max); assay: Test B pre-/postemergence plant response
In short: as §1

[11] = system: velvetleaf (Abutilon theophrasti); assay: Test B pre-/postemergence plant response
In short: as §1

[12] = system: wild oat (Avena fatua); assay: Test B pre-/postemergence plant response
In short: as §1

[13] = system: woolly cupgrass (Eriochloa villosa); assay: Test B pre-/postemergence plant response
In short: as §1

[14] = system: yellow nutsedge (Cyperus esculentus); assay: Test B pre-/postemergence plant response
In short: as §1

[15] = system: canarygrass (Phalaris minor); assay: Test B postemergence plant response
In short: (§2)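 Visual ratings from 0 (no effect) to 100 (complete control), made against controls 13–15 days after treatment, kept in a greenhouse. Compounds were applied postemergence to potted plants at the 1- to 4-leaf stage (2–18 cm).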

[16] = system: chickweed (Stellaria media); assay: Test B postemergence plant response
In short: as §2

[17] = system: windgrass (Apera spica-venti); assay: Test B postemergence plant response
In short: as §2

[18] = system: winter barley (Hordeum vulgare); assay: Test B postemergence plant response
In short: as §2

[19] = 31 g ai/ha, postemergence, scale 0 to 100, 0 is no effect, 100 is complete control
[20] = 250 g ai/ha, Preemergence, 0 to 100 scale
[21] = Postemergence, 62 g ai/ha, scale 0 (no effect) to 100 (complete control), 13 to 15 days
[22] = Postemergence, 125 g ai/ha, visual rating after 13 to 15 days, scale 0 (no effect) to 100 (complete control)
[23] = Postemergence, 250 g ai/ha, scale 0 to 100 (0 no effect, 100 complete control)
[24] = Preemergence, 31 g ai/ha, scale 0 to 100 (0 no effect, 100 complete control)
[25] = Preemergence, 62 g ai/ha, scale 0 to 100, 0 no effect, 100 complete control
[26] = Preemergence, 125 g ai/ha, scale 0 to 100, 0 no effect, 100 complete control

Cc1ccc(Cl)cc1-n1c(-c2ccccc2)ncc(C(=O)C2=C(O)CCCC2=O)c1=O [Compound 52]
Plant response rating, Ryegrass, Italian [1, 19]: 40 | Plant response rating, Ryegrass, Italian [1, 20]: 0 | Plant response rating, Ryegrass, Italian [1, 21]: 45 | Plant response rating, Ryegrass, Italian [1, 22]: 55 | Plant response rating, Ryegrass, Italian [1, 23]: 60 | Plant response rating, Ryegrass, Italian [1, 24]: 0 | Plant response rating, Ryegrass, Italian [1, 25]: 0 | Plant response rating, Ryegrass, Italian [1, 26]: 0 | Plant response rating, Surinam Grass [2, 19]: 75 | Plant response rating, Surinam Grass [2, 20]: 98 | Plant response rating, Surinam Grass [2, 21]: 85 | Plant response rating, Surinam Grass [2, 22]: 90 | Plant response rating, Surinam Grass [2, 23]: 98 | Plant response rating, Surinam Grass [2, 24]: 10 | Plant response rating, Surinam Grass [2, 25]: 25 | Plant response rating, Surinam Grass [2, 26]: 95 | Plant response rating, Bermudagrass [3, 19]: 85 | Plant response rating, Bermudagrass [3, 20]: 100 | Plant response rating, Bermudagrass [3, 21]: 95 | Plant response rating, Bermudagrass [3, 22]: 95 | Plant response rating, Bermudagrass [3, 23]: 100 | Plant response rating, Bermudagrass [3, 24]: 98 | Plant response rating, Bermudagrass [3, 25]: 98 | Plant response rating, Bermudagrass [3, 26]: 98 | Plant response rating, Blackgrass [4, 19]: 5 | Plant response rating, Blackgrass [4, 20]: 10 | Plant response rating, Blackgrass [4, 21]: 5 | Plant response rating, Blackgrass [4, 22]: 25 | Plant response rating, Blackgrass [4, 23]: 30 | Plant response rating, Blackgrass [4, 24]: 0 | Plant response rating, Blackgrass [4, 25]: 0 | Plant response rating, Blackgrass [4, 26]: 0 | Plant response rating, Corn [5, 19]: 30 | Plant response rating, Corn [5, 20]: 0 | Plant response rating, Corn [5, 21]: 45 | Plant response rating, Corn [5, 22]: 65 | Plant response rating, Corn [5, 23]: 80 | Plant response rating, Corn [5, 24]: 0 | Plant response rating, Corn [5, 25]: 0 | Plant response rating, Corn [5, 26]: 0 | Plant response rating, Johnsongrass [6, 19]: 75 | Plant response rating, Johnsongrass [6, 20]: 95 | Plant response rating, Johnsongrass [6, 21]: 85 | Plant response rating, Johnsongrass [6, 22]: 90 | Plant response rating, Johnsongrass [6, 23]: 95 | Plant response rating, Johnsongrass [6, 24]: 10 | Plant response rating, Johnsongrass [6, 25]: 75 | Plant response rating, Johnsongrass [6, 26]: 90 | Plant response rating, Lambsquarters [7, 19]: 85 | Plant response rating, Lambsquarters [7, 20]: 100 | Plant response rating, Lambsquarters [7, 21]: 85 | Plant response rating, Lambsquarters [7, 22]: 90 | Plant response rating, Lambsquarters [7, 23]: 95 | Plant response rating, Lambsquarters [7, 24]: 98 | Plant response rating, Lambsquarters [7, 25]: 100 | Plant response rating, Lambsquarters [7, 26]: 100 | Plant response rating, Crabgrass, Large [8, 19]: 85 | Plant response rating, Crabgrass, Large [8, 20]: 100 | Plant response rating, Crabgrass, Large [8, 21]: 90 | Plant response rating, Crabgrass, Large [8, 22]: 90 | Plant response rating, Crabgrass, Large [8, 23]: 98 | Plant response rating, Crabgrass, Large [8, 24]: 60 | Plant response rating, Crabgrass, Large [8, 25]: 98 | Plant response rating, Crabgrass, Large [8, 26]: 100 | Plant response rating, Ragweed [9, 19]: 75 | Plant response rating, Ragweed [9, 20]: 95 | Plant response rating, Ragweed [9, 21]: 80 | Plant response rating, Ragweed [9, 22]: 80 | Plant response rating, Ragweed [9, 23]: 85 | Plant response rating, Ragweed [9, 24]: 80 | Plant response rating, Ragweed [9, 25]: 80 | Plant response rating, Ragweed [9, 26]: 85 | Plant response rating, Soybean [10, 19]: 80 | Plant response rating, Soybean [10, 20]: 80 | Plant response rating, Soybean [10, 21]: 95 | Plant response rating, Soybean [10, 22]: 95 | Plant response rating, Soybean [10, 23]: 98 | Plant response rating, Soybean [10, 24]: 0 | Plant response rating, Soybean [10, 25]: 0 | Plant response rating, Soybean [10, 26]: 55 | Plant response rating, Velvetleaf [11, 19]: 95 | Plant response rating, Velvetleaf [11, 20]: 100 | Plant response rating, Velvetleaf [11, 21]: 98 | Plant response rating, Velvetleaf [11, 22]: 98 | Plant response rating, Velvetleaf [11, 23]: 100 | Plant response rating, Velvetleaf [11, 24]: 80 | Plant response rating, Velvetleaf [11, 25]: 98 | Plant response rating, Velvetleaf [11, 26]: 98 | Plant response rating, Oat, Wild [12, 19]: 90 | Plant response rating, Oat, Wild [12, 20]: 60 | Plant response rating, Oat, Wild [12, 21]: 90 | Plant response rating, Oat, Wild [12, 22]: 95 | Plant response rating, Oat, Wild [12, 23]: 95 | Plant response rating, Oat, Wild [12, 24]: 0 | Plant response rating, Oat, Wild [12, 25]: 5 | Plant response rating, Oat, Wild [12, 26]: 5 | Plant response rating, Cupgrass, Woolly [13, 19]: 70 | Plant response rating, Cupgrass, Woolly [13, 20]: 80 | Plant response rating, Cupgrass, Woolly [13, 21]: 75 | Plant response rating, Cupgrass, Woolly [13, 22]: 85 | Plant response rating, Cupgrass, Woolly [13, 23]: 95 | Plant response rating, Cupgrass, Woolly [13, 24]: 0 | Plant response rating, Cupgrass, Woolly [13, 25]: 10 | Plant response rating, Cupgrass, Woolly [13, 26]: 65 | Plant response rating, Nutsedge, Yellow [14, 19]: 20 | Plant response rating, Nutsedge, Yellow [14, 20]: 90 | Plant response rating, Nutsedge, Yellow [14, 21]: 25 | Plant response rating, Nutsedge, Yellow [14, 22]: 45 | Plant response rating, Nutsedge, Yellow [14, 23]: 65 | Plant response rating, Nutsedge, Yellow [14, 24]: 0 | Plant response rating, Nutsedge, Yellow [14, 25]: 25 | Plant response rating, Nutsedge, Yellow [14, 26]: 80 | Plant response rating, Canarygrass [15, 19]: 0 | Plant response rating, Canarygrass [15, 21]: 50 | Plant response rating, Canarygrass [15, 22]: 65 | Plant response rating, Canarygrass [15, 23]: 85 | Plant response rating, Chickweed [16, 19]: 95 | Plant response rating, Chickweed [16, 21]: 95 | Plant response rating, Chickweed [16, 22]: 95 | Plant response rating, Chickweed [16, 23]: 98 | Plant response rating, Windgrass [17, 19]: 60 | Plant response rating, Windgrass [17, 21]: 80 | Plant response rating, Windgrass [17, 22]: 90 | Plant response rating, Windgrass [17, 23]: 100 | Plant response rating, Barley [18, 19]: 0 | Plant response rating, Barley [18, 21]: 0 | Plant response rating, Barley [18, 22]: 25 | Plant response rating, Barley [18, 23]: 25
